Values of other authors as cited in patent US6559165B1, “Methods for treating bulimia using optically pure (−) norcisapride” (priority 1998, dated 2003).

How the values were obtained:
[1] = co-administration with ketoconazole

Compound: COc1cc(N)c(Cl)cc1C(=O)N[C@H]1CCN(CCCOc2ccc(F)cc2)C[C@H]1OC (racemic) [(±) Cisapride, cis-4-amino-5-chloro-N-[1-[3-(4-fluorophenoxy)propyl]-3-methoxy-4-piperidinyl]-2-methoxybenzamide]
- portion of dose metabolized (humans, oxidative N-dealkylation or aromatic hydroxylation): More than 90%
- bioavailability (oral administration to humans, rapid first-pass metabolism in the liver): 40-50%
- increase of steady-state plasma levels [1]: 8 fold
